Data as given in patent publication US20050130949A1, “Cyclic polyamine compounds for cancer therapy” (priority 2000, published 2005).

Key:
[1] = tested on: PC-3; assay: MTT assay, cell growth inhibition, PC-3; type: cell-based; conditions: Homo sapiens, PC-3, 144 h, 6 days with drug, read-out: ID50 PC-3
From the text: (§1) To assess the utility of the subject compounds in the treatment of neoplastic cell growth, the ability of the compounds to inhibit the in vitro growth characteristics of several commonly used cancer models were studied. The subject polyamines induce cell growth inhibitions in several cultured human prostate tumor cell lines such as LnCap, DuPro, and PC-3 as determined by the accepted MTT assay (Table 2) (Hansen, M. B. et al., “Re-examination and further development of a precise and rapid dye method for measuring cell growth/cell kill,” J. Immunol. Methods (1989)119(2):203-10). […] The results with the DuPro cell line are representative of the results with human prostate cell lines.
(§2) For the data shown in Table 2, an accepted MTT assay protocol was used. A trypsinized cell suspension was diluted to seed 80 μl suspension containing 500 cells in each well of a 96 well microtiter plates and incubated overnight at 37° C. in a humidified incubator in 5% CO2. Twenty μl of appropriately diluted stock solution of each drug was added to the middle 8 columns of cell suspension in the microtiter plates. Each drug concentration was run in quadruplicate. Outer columns of the plates were used for buffer controls. Cells were incubated with the drug for 6 days at 37° C. in 5% CO2/H2O atmosphere. Twenty five μl of 5 mg/ml solution of 3-(4,5-dimethythiazol-2-yl)-2,5-diphenyl tetrazolium bromide (MTT) was added to each well and incubated for 4 hours at 37° C. in 5% CO2/H2O incubator. Cells were lysed by incubating overnight with 100 μl lysis buffer (500 ml of the lysis buffer containing: 100 g lauryl sulfate (SDS), 250 ml of N,N-dimethyl formamide in 2 ml of glacial acetic acid, pH 4.8). The color was monitored at room temperature at 570 nm in a E-max Precision Microplate Reader (Molecular Devices Corporation, Sunnyvale, Calif.) and data were analyzed using cell survival software supplied by Molecular Devices Corporation.

[2] = tested on: LnCap; assay: MTT assay, cell growth inhibition, LnCap; type: cell-based; conditions: Homo sapiens, 144 h, 6 days with drug, read-out: ID50 LnCap
From the text: as §1, §2

[3] = tested on: DuPro cells; assay: Intracellular polyamine and analog levels by HPLC of dansylated extracts; type: cell-based, human
Procedure: For data shown in Tables 3a and 3b, intracellular polyamine levels were determined using a standard protocol. About 0.5-1×10^6 cells were taken from harvested samples and centrifuged at 1000 rpm at 4° C. for 5 min. The cells were washed twice with chilled Dulbecco's isotonic phosphate buffer (pH 7.4) by centrifugation at 1000 rpm at 4° C. and resuspended in the same buffer. After the final centrifugation, the supernatant was decanted, and 250 μl of 8% sulfosalycilic acid was added to the cell pellet. The cells were then sonicated, and the mixture was kept at 4° C. for at least 1 h. After centrifugation at 8,000 g for 5 min, the supernatant was removed for analysis. An appropriate volume (50-100 μl) was fluorescence-labeled by derivatizing with dansyl chloride. Labeled polyamines were loaded onto a C-18 high-performance liquid chromatography column and separated by gradient elution with acetonitrile/water at 50° C. Peaks were detected and quantitated using a Shimadzu HPLC fluorescence monitor coupled with a Spectra-Physics peak integrator. Because polyamine levels vary with environmental conditions, control cultures were sampled for each experiment.

[4] = tested on: DuPro; assay: MTT assay, cell growth inhibition, DuPro; type: cell-based; conditions: Homo sapiens, 144 h, 6 days with drug, read-out: ID50 DuPro
From the text: as §1, §2

[5] = inorganic phosphate released from 100 μM ATP in 24 hour, 37° C.
Procedure: In a 96 well microtiter plate, the first two columns were routinely used for standard curve generation. For the standard curve, 40 μl of 0-70 μM phosphate buffer was used by serially diluting 1 mM NaH2PO4 solution in 1 N HCl. For ATP hydrolysis, the rest of the microtiter plate was equally divided into two sections to run two analogs at a time. Each section was divided into the appropriate number of columns to serially dilute each analog between 0-10 mM in 29 μl 2N HCl for the final concentration of 2 N HCl. Each drug concentration was run in quadruplicate. Equal volumes of 500 μM ATP solution (pH 7.5) were added to each well and the plates were incubated at 37° C. for appropriate lengths of time between 2-24 h. At the end of the incubation period, 160 μl of coloring agent (0.045% Malachite Green in water and 4.2% ammonium molybdate in 4 N HCl (3:1 v/v)) was added and the plates were incubated at 37° C. for another 30 mins. All plates were read at 595 nm using a Emax precision microplate reader (Molecular Device, San Jose, Calif.). A control plate containing analog solutions without ATP was created for each experiment. Control plate reading was subtracted from each experimental plate and all data was normalized to ATP hydrolysis at zero concentration of polyamine analog. The average and standard deviation for quadruplicate runs were plotted.

[6] = 1 μM analog, Day 4 of Treatment
[7] = 1 μM analog, Day 6 of Treatment
[8] = 2 μM analog, Day 4 of Treatment
[9] = 2 μM analog, Day 6 of Treatment
[10] = 0.5 μM analog, Day 4 of Treatment
[11] = 0.5 μM analog, Day 6 of Treatment

Row | SMILES | IC50 [1] [µM] | IC50 [2] [µM] | Analog level (uptake) [3, 6] [nmoles/10^6 cells] | Analog level (uptake) [3, 7] [nmoles/10^6 cells] | Analog level (uptake) [3, 8] [nmoles/10^6 cells] | Analog level (uptake) [3, 9] [nmoles/10^6 cells] | Analog level (uptake) [3, 10] [nmoles/10^6 cells] | Analog level (uptake) [3, 11] [nmoles/10^6 cells] | Spm (spermine) level [3, 6] [nmoles/10^6 cells] | Spm (spermine) level [3, 7] [nmoles/10^6 cells] | Spm (spermine) level [3, 8] [nmoles/10^6 cells] | Spm (spermine) level [3, 9] [nmoles/10^6 cells] | IC50 [4] [µM] | Spm (spermine) level [3, 10] [nmoles/10^6 cells] | Spm (spermine) level [3, 11] [nmoles/10^6 cells] | also measured
1 | CCCCCCCCCCCCCC1CC(=O)NCCCNCCCCNCCCN1 (stereo not drawn) [SL-11174] | 0.6 | 2.2 | 2.788 | 17.206 | 25.074 | 21.472 |  |  | 0.002 | 0.001 | 0.001 | 0.0021 | 0.83 |  |  | 
2 | CCCCCCCCCCCCCC1CC(=O)NCCCNCCCNCCCN1 (stereo not drawn) [SL-11197] | 0.5 | 2.6 |  |  | 49.072 | 42.341 | 47.566 | 35.913 |  |  |  |  | 0.58 | 0.004 | 0.002 | 
3 | NCCCNCCCCNCCCN [spermine] |  |  |  |  |  |  |  |  |  |  |  |  |  |  |  | hydrolysis of ATP [5]: lack of ATP hydrolysis

More lines, main results first:

Row | IC50 [1] [µM] | IC50 [2] [µM] | Analog level (uptake) [3, 6] [nmoles/10^6 cells] | Analog level (uptake) [3, 7] [nmoles/10^6 cells] | Analog level (uptake) [3, 8] [nmoles/10^6 cells] | Analog level (uptake) [3, 9] [nmoles/10^6 cells] | Analog level (uptake) [3, 10] [nmoles/10^6 cells] | Analog level (uptake) [3, 11] [nmoles/10^6 cells] | SMILES | Spm (spermine) level [3, 6] [nmoles/10^6 cells] | Spm (spermine) level [3, 7] [nmoles/10^6 cells] | Spm (spermine) level [3, 8] [nmoles/10^6 cells] | Spm (spermine) level [3, 9] [nmoles/10^6 cells] | IC50 [4] [µM] | Spm (spermine) level [3, 10] [nmoles/10^6 cells] | Spm (spermine) level [3, 11] [nmoles/10^6 cells] | also measured
4 | 1.4 | 1.5 |  |  | 17.198 | 10.241 | 26.959 | 26.841 | CCCCCCCCCCCCCC1CC(=O)NCCCNCCCCCNCCCN1 (stereo not drawn) [SL-11199] |  |  |  |  | 1.2 | 0.002 | 0.003 | Spd (spermidine) level [3, 11]: 0.005 nmoles/10^6 cells
5 | 1.3 |  | 10.089 | 46.776 | 5.989 | 49.309 |  |  | CCCCCCCCCCCCCC1CC(=O)NCCCNCCCNCCCNCCCN1 (stereo not drawn) [SL-11200] | 0.089 | 0.043 | 0.095 | 0.053 | 1.4 |  |  | Put (putrescine) level [3, 6]: 0.004 nmoles/10^6 cells; Spd (spermidine) level [3, 6]: 0.029 nmoles/10^6 cells; Spd (spermidine) level [3, 7]: 0.014 nmoles/10^6 cells; Put (putrescine) level [3, 8]: 0.020 nmoles/10^6 cells; Spd (spermidine) level [3, 8]: 0.027 nmoles/10^6 cells; Put (putrescine) level [3, 9]: 0.011 nmoles/10^6 cells; Spd (spermidine) level [3, 9]: 0.018 nmoles/10^6 cells
